# Measured values taken from PubChem BioAssay AID208 (DTP/NCI, 2004).
# Where “and” joins values, the source holds several entries; their conditions need not be identical. Equal entries are not always repeated. Results filed as inconclusive are left out.
# System: HT29 intrarenal xenograft, nude mice, tumor weight change
# Test: NCI In Vivo Anticancer Drug Screen. Data for tumor model HT29;CX-1 Human Adenocarcinoma (MER+) (intrarenal inoculation) in NU/NU BALB/C (nude) mice
# Conditions: endpoint: mean tumor weight change, higher = larger tumour
# Experimental: The antitumor activity of compounds was measured in mice bearing transplantable tumors. Survival or tumor size were measured and the results are expressed as the measurement made in the treated group (T) divided by the measurement made in the vehicle treated control group (C). The tumor model used in this assay is HT29;CX-1 Human Adenocarcinoma (MER+) (intrarenal inoculation) in NU/NU BALB/C (nude) mice
# [1] = dose: 150.0 mg/kg/injection, schedule: Q04DX004 (sc), vehicle: saline
# [2] = dose: 300.0 mg/kg/injection, schedule: Q04DX004 (sc), vehicle: saline
# [3] = dose: 600.0 mg/kg/injection, schedule: Q04DX004 (sc), vehicle: saline
# [4] = dose: 100.0 mg/kg/injection, schedule: Q01DX010 (sc), vehicle: Klucel (hydroxypropylcellulose) (HPC)
# [5] = dose: 200.0 mg/kg/injection, schedule: Q01DX010 (sc), vehicle: Klucel (hydroxypropylcellulose) (HPC)
# [6] = dose: 75.0 mg/kg/injection, schedule: Q04DX004 (sc), vehicle: saline
# [7] = dose: 150.0 mg/kg/injection, schedule: Q04DX004 (sc), vehicle: saline with Tween-80
# [8] = dose: 300.0 mg/kg/injection, schedule: Q04DX004 (sc), vehicle: saline with Tween-80
# [9] = dose: 600.0 mg/kg/injection, schedule: Q04DX004 (sc), vehicle: saline with Tween-80
smiles,measurement,setting,value
OCC1OC(n2cnc3c(=S)nc[nH]c32)C(O)C1O (stereo unspecified),T/C,[1],91 % of control
same,T/C,[2],173 % of control
same,T/C,[3],103 % of control
CN(C)c1nc(N(C)C)nc(N(C)C)n1,T/C,"dose: 12.5 mg/kg/injection, schedule: Q01DX010 (sc), vehicle: saline with Tween-80",99 % of control
same,T/C,"dose: 50.0 mg/kg/injection, schedule: Q01DX010 (sc), vehicle: saline with Tween-80",79 % of control
same,T/C,"dose: 100.0 mg/kg/injection, schedule: Q01DX010 (sc), vehicle: saline with Tween-80",72 % of control
CO[C@H]1C[C@@H]2CC[C@@H](C)[C@@](O)(O2)C(=O)C(=O)N2CCCC[C@H]2C(=O)O[C@H]([C@H](C)C[C@@H]2CC[C@@H](O)[C@H](OC)C2)CC(=O)[C@H](C)C=C(C)[C@@H](O)[C@@H](OC)C(=O)[C@H](C)C[C@H](C)/C=C/C=C/C=C1C,T/C,"dose: 200.0 mg/kg/injection, schedule: Q01DX010 (sc), vehicle: saline with Tween-80",84 % of control
same,T/C,"dose: 400.0 mg/kg/injection, schedule: Q01DX010 (sc), vehicle: saline with Tween-80",40 % of control
same,T/C,"dose: 800.0 mg/kg/injection, schedule: Q01DX010 (sc), vehicle: saline with Tween-80",59 % of control
same,T/C,"dose: 1600.0 mg/kg/injection, schedule: Q01DX010 (sc), vehicle: saline with Tween-80",25 % of control
CC(C)C(N)C(=O)Nc1nncs1 (stereo unspecified),T/C,[1],94 % of control
same,T/C,[2],74 % of control
same,T/C,[3],68 % of control
Oc1ccc(O)cc1,T/C,"dose: 100.0 mg/kg/injection, schedule: Q04DX004 (sc), vehicle: saline",106 % of control
Oc1c(Cl)cc(Cl)cc1C=NCCSc1ccc(Cl)cc1,T/C,"dose: 600.0 mg/kg/injection, schedule: Q04DX004 (ip), vehicle: Klucel (hydroxypropylcellulose) (HPC)",105 % of control and 88 % of control
same,T/C,"dose: 1200.0 mg/kg/injection, schedule: Q04DX004 (ip), vehicle: Klucel (hydroxypropylcellulose) (HPC)",80 % of control
NC(=O)CCC(N)C(=O)O (stereo unspecified),T/C,"dose: 75.0 mg/kg/injection, schedule: Q04DX004 (ip), vehicle: suspension in saline",101 % of control
same,T/C,"dose: 150.0 mg/kg/injection, schedule: Q04DX004 (ip), vehicle: suspension in saline",70 % of control
same,T/C,"dose: 600.0 mg/kg/injection, schedule: Q04DX004 (ip), vehicle: suspension in saline",95 % of control
same,T/C,"dose: 1200.0 mg/kg/injection, schedule: Q04DX004 (ip), vehicle: suspension in saline",107 % of control
CN(C)N=Nc1ccc(S(N)(=O)=O)cc1,T/C,[4],81 % of control
same,T/C,[5],104 % of control
COc1cccc2c1C(=O)c1c(O)c3c(c(O)c1C2=O)CC(O)(C(=O)CO)CC3OC1CC(N)C(O)C(C)O1 (stereo unspecified),T/C,"dose: 37.5 mg/kg/injection, schedule: Q04DX004 (sc), vehicle: water",32 % of control and 53 % of control
same,T/C,"dose: 75.0 mg/kg/injection, schedule: Q04DX004 (sc), vehicle: water",111 % of control and 117 % of control
same,T/C,"dose: 300.0 mg/kg/injection, schedule: Q04DX004 (sc), vehicle: water",55 % of control and 68 % of control
N#CC(=C1SCS1)[N+](=O)[O-],T/C,"dose: 3.0 mg/kg/injection, schedule: Q04DX004 (sc), vehicle: saline",69 % of control
same,T/C,"dose: 6.0 mg/kg/injection, schedule: Q04DX004 (sc), vehicle: saline",113 % of control
Oc1ccc(CCl)c2cccnc12,T/C,[6],76 % of control
same,T/C,[1],110 % of control
same,T/C,[2],89 % of control
O=C(O)[C@H](Cc1ccccc1)N1C(=O)c2ccccc2C1=O,T/C,"dose: 150.0 mg/kg/injection, schedule: Q04DX004 (ip), vehicle: DMSO",180 % of control
same,T/C,"dose: 300.0 mg/kg/injection, schedule: Q04DX004 (ip), vehicle: DMSO",97 % of control
Cc1cc(N)c2ccccc2[n+]1CCCCCCCCCC[n+]1c(C)cc(N)c2ccccc21,T/C,"dose: 0.38 mg/kg/injection, schedule: Q01DX010 (ip), vehicle: dextrose",101 % of control
same,T/C,"dose: 0.75 mg/kg/injection, schedule: Q01DX010 (ip), vehicle: dextrose",101 % of control
same,T/C,"dose: 1.5 mg/kg/injection, schedule: Q01DX010 (ip), vehicle: dextrose",81 % of control
CCOC(=O)C1(c2ccccc2)C(=O)Oc2ccccc21 (stereo unspecified),T/C,[7],83 % of control
same,T/C,[8],98 % of control
same,T/C,[9],117 % of control
same,T/C,"dose: 1200.0 mg/kg/injection, schedule: Q04DX004 (sc), vehicle: saline with Tween-80",80 % of control
O=[N+]([O-])c1ccc(N2CCOCC2)c2c1no[n+]2[O-],T/C,"dose: 75.0 mg/kg/injection, schedule: Q04DX004 (sc), vehicle: saline with Tween-80",88 % of control
same,T/C,[7],116 % of control
same,T/C,[8],156 % of control
same,T/C,[9],83 % of control
CNC=O,T/C,"dose: 100.0 mg/kg/injection, schedule: Q01DX010 (ip), vehicle: saline",81 % of control
same,T/C,"dose: 200.0 mg/kg/injection, schedule: Q01DX010 (ip), vehicle: saline",64 % of control
same,T/C,"dose: 400.0 mg/kg/injection, schedule: Q01DX010 (ip), vehicle: saline",-33 % of control
CNc1nc(NC)nc(NC)n1,T/C,"dose: 12.5 mg/kg/injection, schedule: Q01DX010 (sc), vehicle: Klucel (hydroxypropylcellulose) (HPC)",154 % of control
same,T/C,"dose: 50.0 mg/kg/injection, schedule: Q01DX010 (sc), vehicle: Klucel (hydroxypropylcellulose) (HPC)",73 % of control
CCOC(=O)NC1=C(N2CC2)C(=O)C(NC(=O)OCC)=C(N2CC2)C1=O,T/C,"dose: 1.56 mg/kg/injection, schedule: Q01DX010 (sc), vehicle: saline",120 % of control
same,T/C,"dose: 3.13 mg/kg/injection, schedule: Q01DX010 (sc), vehicle: saline",88 % of control
same,T/C,"dose: 6.25 mg/kg/injection, schedule: Q01DX010 (sc), vehicle: saline",107 % of control
C(CSC1=NCCN1)CSC1=NCCN1,T/C,"dose: 25.0 mg/kg/injection, schedule: Q01DX010 (sc), vehicle: saline",78 % of control
same,T/C,"dose: 100.0 mg/kg/injection, schedule: Q01DX010 (sc), vehicle: saline",66 % of control
same,T/C,"dose: 200.0 mg/kg/injection, schedule: Q01DX010 (sc), vehicle: saline",46 % of control
O=P1(NCCCl)OCCCN1CCCl (stereo unspecified),T/C,[6],68 % of control
O=[N+]([O-])c1nccn1CC(O)CO (stereo unspecified),T/C,[2],86 % of control
same,T/C,"dose: 1200.0 mg/kg/injection, schedule: Q04DX004 (sc), vehicle: saline",81 % of control
same,T/C,"dose: 2400.0 mg/kg/injection, schedule: Q04DX004 (sc), vehicle: saline",112 % of control
CC[C@@]1(O)C(=O)OCc2c1cc1n(c2=O)Cc2cc3cc(O)ccc3nc2-1,T/C,"dose: 8.0 mg/kg/injection, schedule: Q04DX004 (sc), vehicle: saline",2 % of control
same,T/C,"dose: 16.0 mg/kg/injection, schedule: Q04DX004 (sc), vehicle: saline",-74 % of control
same,T/C,"dose: 32.0 mg/kg/injection, schedule: Q04DX004 (sc), vehicle: saline",-92 % of control
CCCC(=O)OCc1cc(=O)n(C)c2c3c4c(cc12)c(C)cc(=O)n4CO3,T/C,[4],40 % of control
same,T/C,[5],43 % of control
same,T/C,"dose: 400.0 mg/kg/injection, schedule: Q01DX010 (sc), vehicle: Klucel (hydroxypropylcellulose) (HPC)",56 % of control
same,T/C,"dose: 800.0 mg/kg/injection, schedule: Q01DX010 (sc), vehicle: Klucel (hydroxypropylcellulose) (HPC)",27 % of control
O=[N+]([O-])O.O=[N+]([O-])O.[NH-]C1CCCCC1[NH-].[Pt+2] (stereo unspecified),T/C,"dose: 0.5 mg/kg/injection, schedule: Q01DX010 (sc), vehicle: dextrose",87 % of control
same,T/C,"dose: 1.0 mg/kg/injection, schedule: Q01DX010 (sc), vehicle: dextrose",62 % of control
same,T/C,"dose: 2.0 mg/kg/injection, schedule: Q01DX010 (sc), vehicle: dextrose",36 % of control
O=C1OC(C(O)CO)C(O)=C1O (stereo unspecified),T/C,"dose: 400.0 mg/kg/injection, schedule: Q01DX010 (sc), vehicle: saline",113 % of control
same,T/C,"dose: 800.0 mg/kg/injection, schedule: Q01DX010 (sc), vehicle: saline",167 % of control
CCn1cnc2c(=S)nc[nH]c21,T/C,[1],175 % of control
Nc1nc2ccc(NCc3ccc(C(=O)NC(CCC(=O)O)C(=O)O)cc3)cc2c(=O)[nH]1 (stereo unspecified),T/C,"dose: 200.0 mg/kg/injection, schedule: Q04DX004 (sc), vehicle: saline with Tween-80",92 % of control
same,T/C,"dose: 400.0 mg/kg/injection, schedule: Q04DX004 (sc), vehicle: saline with Tween-80",105 % of control
COc1cccc2c1C(=O)c1c(O)c3c(c(O)c1C2=O)C[C@@](O)(/C(C)=N\O)C[C@@H]3OC1CC(N)C(O)C(C)O1 (stereo partly specified),T/C,"dose: 12.5 mg/kg/injection, schedule: Q04DX004 (sc), vehicle: saline",150 % of control
same,T/C,"dose: 25.0 mg/kg/injection, schedule: Q04DX004 (sc), vehicle: saline",100 % of control
same,T/C,"dose: 50.0 mg/kg/injection, schedule: Q04DX004 (sc), vehicle: saline",103 % of control
